Experimental data reported in US20160324852A1, “COMPOSITIONS AND METHODS OF TREATING A NEURODEGENERATIVE DISEASE” (Axovant Sciences Ltd., priority 2015, published 2016).

How the values were obtained:
[1] = system: patients with Alzheimer's disease; test: AZ310866 Phase 2b study, ADAS-Cog score vs placebo; assay type: in vivo, human
Experimental: (§1) The 35 mg dose was evaluated in four Phase 2 trials and is the dose being evaluated in a Phase 3 pivotal study. In the AZ310866 Phase 2b study, there was a dose dependent increase in efficacy vs placebo in the ADAS-Cog score between 15 mg (−0.7 units) and 35 mg (−1.7 units). […] These benefits need to be balanced with the potential for adverse events, in particular, the CNS toxicity observed in dogs and rabbits described below. […] In the 26-week dog study, one high-dose dog had seizures on Day 55 and was euthanized. A second dog had seizures on Day 59 and survived. For the second dog, plasma samples taken approximately 5 minutes and two hours after the seizure (4 and 6 hours post dose on Day 59) had SB742457 concentrations of 1570 and 1440 ng/mL, respectively. […] In study SB742457/005, elderly subjects received 35 mg once daily of 3-phenylsulfonyl-8-piperazinyl-1yl-quinoline for 28 days. […] This mean value is approximately ¼th the Cmax value observed in dogs with seizures. The maximum concentration that may be achieved is approximately ½ the Cmax value observed in the 2 dogs with seizures. […]

[2] = rat maximal electroshock seizure threshold test; settings: in vivo, exposure at which seizure threshold was not decreased, read-out: extrapolated Cmax
Experimental: as §1

[3] = system: rabbits; test: nonclinical studies, seizures in rabbits; assay type: in vivo
Experimental: as §1

[4] = in vivo; settings: dog
Experimental: (§2) The 35 mg dose was evaluated in four Phase 2 trials and is the dose being evaluated in a Phase 3 pivotal study. In the AZ310866 Phase 2b study, there was a dose dependent increase in efficacy vs placebo in the ADAS-Cog score between 15 mg (−0.7 units) and 35 mg (−1.7 units). […] These benefits need to be balanced with the potential for adverse events, in particular, the CNS toxicity observed in dogs and rabbits described below. […] In the 26-week dog study, one high-dose dog had seizures on Day 55 and was euthanized. A second dog had seizures on Day 59 and survived. For the second dog, plasma samples taken approximately 5 minutes and two hours after the seizure (4 and 6 hours post dose on Day 59) had SB742457 concentrations of 1570 and 1440 ng/mL, respectively. […] In study SB742457/005, elderly subjects received 35 mg once daily of 3-phenylsulfonyl-8-piperazinyl-1yl-quinoline for 28 days. […] This mean value is approximately ¼th the Cmax value observed in dogs with seizures. The maximum concentration that may be achieved is approximately ½ the Cmax value observed in the 2 dogs with seizures. To further understand the risk to humans, SimCYP population PBPK modelling was used to predict brain concentrations of 3-phenylsulfonyl-8-piperazinyl-1yl-quinoline in dogs exposed to the concentrations linked with seizures, and to compare these with predicted human brain concentrations at the clinical dose of 35 mg. The simulations predicted that the human steady-state brain concentrations following repeat administration with 35 mg would be approximately 40-fold lower than the brain concentrations associated with seizures in dogs. Assuming linear pharmacokinetics, the human steady-state brain concentrations with 70 mg would be approximately 20-fold lower than the brain concentrations associated with convulsions in dogs. […] Furthermore, in Phase 2 studies encompassing 1024 patients with Alzheimer's disease at doses of 5 mg to 35 mg per day, two subjects reported seizures, both in the Phase 2b study with 3-phenylsulfonyl-8-piperazinyl-1yl-quinolone administered as adjunctive therapy to donepezil. One subject was in the placebo group and one in the 15 mg 3-phenylsulfonyl-8-piperazinyl-1yl-quinoline group. The subject receiving 3-phenylsulfonyl-8-piperazinyl-1yl-quinoline was hospitalized with a suspicion of a TIA and experienced a seizure, which was reported by the PI as not attributable to study drug.

[5] = system: dogs; test: in vivo; settings: dog
Experimental: as §2

[6] = system: mice; test: nonclinical studies, seizures in mice; assay type: in vivo
[7] = system: rats; test: nonclinical studies, seizures in rats; assay type: in vivo
[8] = study SB742457/005, pharmacokinetics in elderly subjects; assay type: in vivo, human; settings: for Cmax: human, plasma
Experimental: as §2

[9] = system: healthy subjects; test: clinical studies with healthy subjects (n=225), seizures; assay type: in vivo; settings: single doses of up to 175 mg and repeat doses of up to 50 mg for 13 days
Experimental: as §1

[10] = system: patients with Alzheimer's disease; test: Phase 2 studies in 1024 patients with Alzheimer's disease, seizures; assay type: in vivo; settings: 15 mg group, Phase 2b study, adjunctive therapy to donepezil; reported as not attributable to study drug
Experimental: as §1

[11] = clinical; settings: human, in vivo
[12] = system: healthy rat brain glucose utilization; test: FDG-PET/CT brain glucose utilization in healthy rats; assay type: in vivo; settings: healthy young CD rats, 10 mg/kg or 20 mg/kg 3 h prior to FDG; pairwise comparisons did not reach statistical significance
Text: 3-phenylsulfonyl-8-piperazinyl-1yl-quinoline is a potent antagonist of the 5-hydroxytryptamine 6 (5-HT6) serotonin receptor. Reduced glucose utilization is an early sign of decreasing brain function in AD. Altered neuronal glucose uptake assessed by flurodeoxyglucose-positron emission tomography (FDG-PET) may be useful as a diagnostic foundation for identifying patients with AD. This study evaluates 3-phenylsulfonyl-8-piperazinyl-1yl-quinoline at clinically relevant doses on healthy rat brain glucose utilization using FDG-PET/CT.
Methods: Healthy, young CD rats were pre-dosed with vehicle (1% methylcellulose, w/v) or RVT-101 (10 mg/kg or 20 mg/kg) 3 h prior to FDG (18.1±3.5 MBq, i.v.). Brain FDG standard uptake values (SUV) were quantified using scanning in single 20 min list mode (BioPET/CT, Sedecal) starting 30 min post FDG dosing. PET/CT scans were analyzed as a single time frame summarizing counts over 20 min. All experiments were completed in an accredited facility according to NIH guidelines. PET/CT imaging data were analyzed using Student's t-test, cluster analysis, and multivariate analysis of variance (MANOVA) using a subset of SUV from 5 cluster-identified regions.

Q: What does the source list for `O=S(=O)(c1ccccc1)c1cnc2c(N3CCNCC3)cccc2c1` [3-phenylsulfonyl-8-piperazinyl-1yl-quinoline]?
A: increase in efficacy vs placebo in the ADAS-Cog score ([1]; 15 mg): −0.7 units; increase in efficacy vs placebo in the ADAS-Cog score ([1]; 35 mg): −1.7 units; Cmax [2]: 1890 ng/mL; seizures ([3]; nonclinical studies): caused seizures; seizures ([3]; single dose at 300 mg/kg, exceeded the maximum tolerated repeat-dose level): seizures were produced; Cmax [4]: 1700 ng/mL; concentration at 4 h post dose on Day 59 [4]: 1570 ng/mL; concentration at 6 h post dose on Day 59 [4]: 1440 ng/mL; plasma concentration associated with an increased seizure risk [5]: > 1570 ng/mL; plasma concentrations achieved [5]: up to 1937 ng/mL; seizures ([5]; 7.5 mg/kg/day): did not occur; seizures [6]: not in rodents; seizures [7]: not in rodents; Cmax ([8]; both sexes, 35 mg, elderly subjects, 35 mg once daily for 28 days, read-out: highest recorded Cmax): 307 ng/mL; Cmax ([8]; female, 35 mg, elderly females, 35 mg once daily for 28 days, read-out: mean Cmax): 177 ng/mL; expected maximum concentration at 70 mg relative to the Cmax observed in the 2 dogs with seizures ([8]; human 70 mg vs dog): approximately ½; expected mean Cmax at 70 mg relative to the Cmax observed in dogs with seizures ([8]; human 70 mg vs dog): approximately ¼; Cmax ([8]; oral, 70 mg, multiple dosing with 70 mg, extrapolated given linear human pharmacokinetics, read-out: expected maximum Cmax): 714 ng/mL; Cmax ([8]; oral, 70 mg, multiple dosing with 70 mg, extrapolated given linear human pharmacokinetics, read-out: expected mean Cmax): ~360 ng/mL; Cmax ([8]; male, 35 mg, elderly males, 35 mg once daily for 28 days, read-out: mean Cmax): 181 ng/mL; seizures [9]: no seizures were observed; subjects reporting seizures [10]: one; AUC [11]: ~3200 ng·h/mL; AUC(0-inf) [11]: ~9250 ng·h/mL; Cmax ([11]; Cmax): ~293 ng/mL; Cmax ([11]; mean Cmax): ~180 ng/mL; brain glucose uptake (FDG SUV) [12]: trend of increased glucose uptake
